According to patent publication EP4623906A1, “OPHTHALMIC FORMULATION COMPRISING PYRIDINE PHENYL COMPOUND, PREPARATION METHOD THEREFOR, AND USE THEREOF” (Zhuhai United Laboratories Co., Ltd., priority 2022, dated 2024):

Experiments:
Assay type in all cases: physicochemical
[1] = Solubilization trials of compound of formula (IX) with different solubilizing agents, grinding and heating (Examples 1-11)
Description: Examples 1-11 were prepared according to the specific processes in Table 1. […]

[2] = Preliminary stability of eye drops with antimicrobial preservatives, in the dark at 25°C and 40°C for 5 days (Examples 52, 55, 56); conditions: Compound of Formula (IX), 0 h
Description: According to the prescription ratio in Table 11, the active compound of formula (IX) was weighed, and dispersed in isopropanol with stirring until the solution was clear. HP-β-CD was slowly added under stirring, until the solution was clear. Purified water in the prescribed ratio was slowly added to the isopropanol solution under stirring, and stirred for 1 hour to obtain a clear solution. The above solution was freeze-dried in a vacuum freeze dryer to obtain a loose white freeze-dried powder. Freeze-dried powder of the inclusion compound was dissolved in a re-dissolving medium, and successively filtered through 0.45 µm and 0.22 µm mixed filter membrane to obtain active compound eye drops, and filled in a sample packaging of 2 mL per bottle, to obtain eye drops.
For multi-dose packaged eye drops, the addition of antimicrobial preservatives is needed to avoid microbial contamination during use. The effects of two antimicrobial preservatives, benzalkonium chloride and chlorhexidine acetate, on prescription stability were investigated through Examples 52, 55, and 56. The preliminary stability of eye drops from Example 52, Example 55, and Example 56 was investigated by placing them in the dark at 25°C and 40°C for 5 days.

[3] = Preliminary compatibility of packaging materials, in the dark at 25°C (Examples 52-54); design: unit not given here; conditions: Compound of Formula (IX) itself
Description: Examples 53 and 54 were packaged in low-density polyethylene (PE) pharmaceutical eye drops bottles, brown polyester (PET) pharmaceutical eye drops bottles and ampoules, respectively. They were placed in the dark at 25°C to investigate the preliminary compatibility of the packaging materials.

Solubility in water [1]: insoluble or almost insoluble
Peak at retention time 19.6 min, relative retention time 1.00 [2]: 93.14
Peak at retention time 20.2 min, relative retention time 1.03 [2]: 0.16
Peak at retention time 21.1 min, relative retention time 1.08 [2]: 0.39
Peak at retention time 21.5 min, relative retention time 1.10 [2]: 0.41
Peak at retention time 23.8 min, relative retention time 1.21 [2]: 0.11
Peak at retention time 24.0 min, relative retention time 1.22 [2]: 2.41
Peak at retention time 24.5 min, relative retention time 1.25 [2]: 0.50
Peak at retention time 24.7 min, relative retention time 1.26 [2]: 0.25
Peak at retention time 24.8 min, relative retention time 1.27 [2]: 0.12
Peak at retention time 25.6 min, relative retention time 1.31 [2]: 0.09
Peak at retention time 26.0 min, relative retention time 1.33 [2]: 0.15
Peak at retention time 26.2 min, relative retention time 1.34 [2]: 2.15
Peak at retention time 28.3 min, relative retention time 1.44 [2]: 0.13
Impurity RRT 0.44 [3]: 0.06
Impurity RRT 1.17 [3]: 0.05
Impurity RRT 1.29 [3]: 0.20
Impurity RRT 1.34 [3]: 0.10
Impurity RRT 1.55 [3]: 0.07
Impurity RRT 1.59 [3]: 0.02
Impurity RRT 1.66 [3]: 0.04
Impurity RRT 1.75 [3]: 0.04
Impurity RRT 1.81 [3]: 0.03
Impurity RRT 1.84 [3]: 0.25
Impurity RRT 1.89 [3]: 0.04
Impurity RRT 1.97 [3]: 0.03
Impurity RRT 2.10 [3]: 0.09
Impurity RRT 2.19 [3]: 0.21
Impurity RRT 2.23 [3]: 0.02
Impurity RRT 2.27 [3]: 0.03
Total impurity [3]: 1.03
SMILES: CC(C)(O)c1ccc(-c2cnc(C(C)(C)O)c(N)c2)cc1N [Compound of Formula (IX)]
